Measured values taken from ChEMBL document CHEMBL1140355, “New HIV-1 replication inhibitors of the styryquinoline class bearing aroyl/acyl groups at the C-7 position: synthesis and biological activity” (Bioorg Med Chem Lett, 2005).

Columns and labels:
[1] = Toxicity towards CEM cells determined by standard MTT assay, expressed as concentration required for the survival of 50% cells; assay type: cell-based; conditions: human, CEM cells (CCRF-CEM cell line); read-out: TC50 (the source's name)
[2] = tested on: Human immunodeficiency virus 1; experiment: Antiviral activity against human immunodeficiency virus type 1 by using MAGI assay; assay type: functional, organism-based; conditions: Human immunodeficiency virus 1, MAGI
[3] = tested on: Human immunodeficiency virus 1; experiment: Antiviral activity against human immunodeficiency virus type 1 by using MAGI assay; NR = not reached; assay type: functional, organism-based

Row | IC50 [2] [µM] | IC50 [3] | Compound | CC50 [1] [µM]
1 | 40 |  | O=C(O)c1ccc(C(=O)c2ccc3ccc(/C=C/c4ccc(O)c(O)c4)nc3c2O)cc1 | 80
2 |  | Not reached | O=C(c1ccc2ccc(/C=C/c3ccc(O)c(O)c3)nc2c1O)c1cccc2ccccc12 | 1
3 |  | Not reached | O=C(c1ccccc1)c1ccc2ccc(/C=C/c3ccc(O)c(O)c3)nc2c1O | 3
4 | 2 |  | O=C(c1ccc([N+](=O)[O-])cc1)c1ccc2ccc(/C=C/c3ccc(O)c(O)c3)nc2c1O | 60
5 | 60 |  | Cc1cc(C(=O)c2ccc3ccc(/C=C/c4ccc(O)c(O)c4)nc3c2O)ccc1[N+](=O)[O-] | 90
6 | 63 |  | O=C(O)c1cccc(C(=O)c2ccc3ccc(/C=C/c4ccc(O)c(O)c4)nc3c2O)c1 | > 100
7 | 2 |  | O=C(CCc1ccccc1)c1ccc2ccc(/C=C/c3ccc(O)c(O)c3)nc2c1O | 7
8 | 2 |  | O=C(c1cccnc1)c1ccc2ccc(/C=C/c3ccc(O)c(O)c3)nc2c1O | > 100
9 |  | Not reached | O=C(c1ccncc1)c1ccc2ccc(/C=C/c3ccc(O)c(O)c3)nc2c1O | 4
10 | 6 |  | O=C(c1ccc(O)cc1)c1ccc2ccc(/C=C/c3ccc(O)c(O)c3)nc2c1O | 87
11 | 4 |  | O=C(c1ccccc1[N+](=O)[O-])c1ccc2ccc(/C=C/c3ccc(O)c(O)c3)nc2c1O | 70
12 | 4 |  | O=C(c1ccc(F)c(F)c1)c1ccc2ccc(/C=C/c3ccc(O)c(O)c3)nc2c1O | 63
13 | 0.5 |  | O=C(c1cccc([N+](=O)[O-])c1)c1ccc2ccc(/C=C/c3ccc(O)c(O)c3)nc2c1O | 1.5
14 |  | Not reached | O=C(c1ccccc1O)c1ccc2ccc(/C=C/c3ccc(O)c(O)c3)nc2c1O | 1
15 | 5 |  | CCCCCCCCC(=O)c1ccc2ccc(/C=C/c3ccc(O)c(O)c3)nc2c1O | 10
16 |  |  | O=C(O)c1ccc2ccc(/C=C/c3ccc(O)c(O)c3)nc2c1O | > 100
17 | 35 |  | O=C(O)c1ccccc1C(=O)c1ccc2ccc(/C=C/c3ccc(O)c(O)c3)nc2c1O | > 100
18 |  | Not reached | O=C(c1ccccn1)c1ccc2ccc(/C=C/c3ccc(O)c(O)c3)nc2c1O | 15
